Assay results published in patent US11452725B2, “Chiral diaryl macrocycles and uses thereof” (TURNING POINT THERAPEUTICS, INC., priority 2015, dated 2022).

How the values were obtained:
ARK5 [1] = biological target: T1, ARK5 (Homo sapiens, UniProt O60285); assay: KINOMEscan kinase binding assay (DiscoveRx)
Description: (§1) Kinase binding assays were performed at DiscoveRx using the general KINOMEscan Kd Protocol (Fabian, M. A. et al., “A small molecule-kinase interaction map for clinical kinase inhibitors,” Nat. Biotechnol. 2005, 23(3):329-36). For most assays, kinase-tagged T7 phage strains were prepared in an E. coli host derived from the BL21 strain. E. coli were grown to log-phase and infected with T7 phage and incubated with shaking at 32° C. until lysis. The lysates were centrifuged and filtered to remove cell debris. The remaining kinases were produced in HEK-293 cells and subsequently tagged with DNA for qPCR detection. […] The liganded beads were blocked with excess biotin and washed with blocking buffer (SeaBlock (Pierce), 1% BSA, 0.05% Tween 20, 1 mM DTT) to remove unbound ligand and to reduce nonspecific binding. […] All reactions were performed in polystyrene 96-well plates in a final volume of 0.135 mL. […] The kinase concentration in the eluates was measured by qPCR.
(§2) Binding constants (Kds) were calculated with a standard dose-response curve using the Hill equation: Response=Background+(Signal−Background)/(1+(Kd^Hill Slope/Dose^Hill Slope)) The Hill Slope was set to −1. Curves were fitted using a non-linear least square fit with the Levenberg-Marquardt algorithm.

FAK = FAK (Homo sapiens, UniProt Q05397); assay: KINOMEscan kinase binding assay (DiscoveRx)
Description: as §1, §2

FGR = biological target: T2, FGR (Homo sapiens, UniProt P09769); assay: Biochemical kinase assay (Reaction Biology); conditions: 10 μM ATP
T2 construct: purchased Reaction Biology Corporation
Description: (§3) Specific kinase/substrate pairs along with required cofactors were prepared in reaction buffer; 20 mM Hepes pH 7.5, 10 mM MgCl2, 1 mM EGTA, 0.02% Brij35, 0.02 mg/ml BSA, 0.1 mM Na3VO4, 2 mM DTT, 1% DMSO (for specific details of individual kinase reaction components see Supplementary Table 2). Compounds were delivered into the reaction, followed ˜20 minutes later by addition of a mixture of ATP (Sigma, St. Louis Mo.) and ^33P ATP (Perkin Elmer, Waltham Mass.) to a final concentration of 10 μM. Reactions were carried out at room temperature for 120 min, followed by spotting of the reactions onto P81 ion exchange filter paper (Whatman Inc., Piscataway, N.J.). […] IC50 values and curve fits were obtained using Prism (GraphPad Software).

ARK5 [2] = biological target: T1, ARK5; assay: Biochemical kinase assay (Reaction Biology); conditions: 10 μM ATP
Description: as §3

SNARK = biological target: T3, SNARK (Homo sapiens, UniProt Q9H093); assay: Biochemical kinase assay (Reaction Biology); conditions: 10 μM ATP
T3 construct: purchased Reaction Biology Corporation
Description: as §3

LCK = biological target: T4, LCK (Homo sapiens, UniProt P06239); assay: Biochemical kinase assay (Reaction Biology); conditions: 10 μM ATP
T4 construct: purchased Reaction Biology Corporation (contract assay)
Description: as §3

JAK1 = biological target: T5, JAK1 (Homo sapiens, UniProt P23458); assay: Biochemical kinase assay (Reaction Biology); conditions: 10 μM ATP
T5 construct: purchased Reaction Biology Corporation (contract assay)
Description: as §3

TYK2 = biological target: T6, TYK2 (Homo sapiens, UniProt P29597); assay: Biochemical kinase assay (Reaction Biology); conditions: 10 μM ATP
T6 construct: purchased Reaction Biology Corporation (contract assay)
Description: as §3

IGFR = biological target: T7, IGFR (Homo sapiens, UniProt P08069); assay: Biochemical kinase assay (Reaction Biology); conditions: 10 μM ATP
T7 construct: purchased Reaction Biology Corporation (contract assay)
Description: as §3

MARK3 = biological target: T8, MARK3 (Homo sapiens, UniProt P27448); assay: Biochemical kinase assay (Reaction Biology); conditions: 10 μM ATP
T8 construct: purchased Reaction Biology Corporation (contract assay)
Description: as §3

[3] = tested on: Ba/F3 TPR-ALK L1196M cell line; assay: Cell proliferation assay at Advanced Cellular Dynamics (CellTiter-Glo); type: cell-based; conditions: Mus musculus, BaF3, 48 hours
[4] = tested on: Ba/F3 SDC4-ROS1 G2032R cell line; assay: Cell proliferation assay (CellTiter-Glo); type: cell-based; conditions: Mus musculus, BaF3; 72 hours
paxillin = assay: Immunoblotting SRC substrate phosphorylation, NCI-H2228 cells; type: cell-based; conditions: Homo sapiens; NCI-H2228 cell line
Description: NSCLC cell line H2228 (harboring endogenous EML4-ALK fusion gene) was cultured in RPMI medium supplemented with 10% fetal bovine serum and 100 U/mL of penicillin/streptomycin. Ba/F3 and NIH3T3 cells stably expressing ROS1, or TRKA, or TRKB, or TRKC (WT or mutant) were cultured as mentioned above. […] Cells were collected after treatment and lysed in RIPA buffer (50 mM Tris, pH 7.4, 150 mM NaCl, 1% NP-40, 0.5% Deoxycholate, 0.1% SDS) supplemented with 10 mM EDTA, 1× Halt protease and phosphatase inhibitors (Thermo Scientific). Protein lysates (approximately 20 μg) was resolved on 4-12% Bolt Bis-Tris precasted gels with MES running buffer (Life Technologies), transferred to nitrocellulose membranes using Trans-Blot Turbo Transfer System (Bio-Rad) and detected with antibodies targeting phosphorylated phosphorylated ROS1 and total ROS1 (Cell Signaling Technology), phosphorylated TRK A/B (Cell Signaling Technology), total TRKA antibody (Santa Cruz Biotechnology), phosphorylated SRC Y416 (Cell Signaling Technology), total SRC (Cell Signaling Technology), phosphorylated FAK Y576/577 (Cell Signaling Technology), total FAK (Cell Signaling Technology), phosphorylated paxillin Y118 (Cell Signaling Technology), total paxillin (Cell Signaling Technology), phosphorylated EGFR and total EGFR, CD44, and Tubulin (Sigma). […]

Karpas-299 cells = assay: Apoptosis/caspase activity assay; type: cell-based; conditions: 48 hours treatment
Description: Karpas-299 cells were maintained in RPMI medium supplemented with 10% fetal bovine serum and antibiotics. Five hundred thousand cells per well were seeded in 12-well plate and various concentration of compounds were introduced and incubated for 48 hrs. The cells were then collected and lysed in a lysis buffer (20 mM HEPES, 150 mM NaCl, 10 mM KCl, 5 mM EDTA, 1% NP40) supplemented with Halt protease and phosphatase inhibitors (Thermo Scientific). For caspase assays, approximately 20 μg of cell lysate were incubated with 20 μl of caspase-3 glo reagent (Promega), and the enzyme activity was measured by the release of luminescence after 20 min incubation at 37° C. For western blotting, cell lysate were boiled and analyzed by SDS-PAGE/immunoblotting using anti-caspase-3 (Cell Signaling Technology), anti-PARP (Cell Signaling Technology), or anti-actin (Cell Signaling Technology) antibodies. Antibodies were typically incubated overnight at 4° C. with gentle shake, followed by washes and incubation with the appropriate HRP-conjugated secondary antibodies. Membranes were incubated with chemiluminescent substrate for 5 min at room temperature (SuperSignal West Femto, Thermo Scientific), and the chemiluminescent images were obtained with a C-DiGit Imaging System (LI-COR Biosciences).

[5] = tested on: NIH3T3 EML4-ALK WT tumors; assay: NIH3T3 EML4-ALK WT subcutaneous xenograft model; type: in vivo, athymic nude mice; conditions: 12 days
[6] = tested on: Ba/F3 CD74-ROS1 G2032R tumors; assay: Ba/F3 CD74-ROS1 G2032R subcutaneous xenograft model; type: in vivo, SCID/Beige mice; conditions: 11 days
Description: Female athymic nude mice and SCID/Beige mice (5-8 weeks of age) were obtained from Charles River Laboratory and were housed in Innovive IVC disposable cages on HEPA filtered ventilated racks with ad libitum access to rodent chow and water. Five million cells in 100 μL serum-free medium were implanted subcutaneously in the right flank region of the mouse. […] All models were implanted with 50% matrigel (Corning, Inc) in the medium. Tumor size and body weight were measured on designated days. Tumor size was measured with an electronic caliper and tumor volume was calculated as the product of length*width^2*0.5.
The control group of mice were given vehicle only.

T1 sequence (O60285 whole entry): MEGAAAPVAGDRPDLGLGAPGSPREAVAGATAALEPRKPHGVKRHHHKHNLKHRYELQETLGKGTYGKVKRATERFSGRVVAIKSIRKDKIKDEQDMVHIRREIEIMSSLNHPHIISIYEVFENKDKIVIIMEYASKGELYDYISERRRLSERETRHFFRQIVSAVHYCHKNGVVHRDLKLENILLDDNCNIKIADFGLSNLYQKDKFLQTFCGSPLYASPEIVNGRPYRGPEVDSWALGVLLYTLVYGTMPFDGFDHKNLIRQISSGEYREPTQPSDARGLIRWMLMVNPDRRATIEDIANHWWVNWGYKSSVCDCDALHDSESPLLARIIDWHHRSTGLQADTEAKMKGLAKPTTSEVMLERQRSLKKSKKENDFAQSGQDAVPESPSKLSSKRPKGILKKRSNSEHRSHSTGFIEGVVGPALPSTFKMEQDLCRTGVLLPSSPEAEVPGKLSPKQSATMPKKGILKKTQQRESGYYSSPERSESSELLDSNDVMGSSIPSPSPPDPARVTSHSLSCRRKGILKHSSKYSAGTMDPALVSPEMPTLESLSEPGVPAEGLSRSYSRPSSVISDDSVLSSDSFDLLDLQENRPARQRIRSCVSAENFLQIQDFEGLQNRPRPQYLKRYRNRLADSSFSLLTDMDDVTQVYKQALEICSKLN
T7 sequence (P08069 31-1367): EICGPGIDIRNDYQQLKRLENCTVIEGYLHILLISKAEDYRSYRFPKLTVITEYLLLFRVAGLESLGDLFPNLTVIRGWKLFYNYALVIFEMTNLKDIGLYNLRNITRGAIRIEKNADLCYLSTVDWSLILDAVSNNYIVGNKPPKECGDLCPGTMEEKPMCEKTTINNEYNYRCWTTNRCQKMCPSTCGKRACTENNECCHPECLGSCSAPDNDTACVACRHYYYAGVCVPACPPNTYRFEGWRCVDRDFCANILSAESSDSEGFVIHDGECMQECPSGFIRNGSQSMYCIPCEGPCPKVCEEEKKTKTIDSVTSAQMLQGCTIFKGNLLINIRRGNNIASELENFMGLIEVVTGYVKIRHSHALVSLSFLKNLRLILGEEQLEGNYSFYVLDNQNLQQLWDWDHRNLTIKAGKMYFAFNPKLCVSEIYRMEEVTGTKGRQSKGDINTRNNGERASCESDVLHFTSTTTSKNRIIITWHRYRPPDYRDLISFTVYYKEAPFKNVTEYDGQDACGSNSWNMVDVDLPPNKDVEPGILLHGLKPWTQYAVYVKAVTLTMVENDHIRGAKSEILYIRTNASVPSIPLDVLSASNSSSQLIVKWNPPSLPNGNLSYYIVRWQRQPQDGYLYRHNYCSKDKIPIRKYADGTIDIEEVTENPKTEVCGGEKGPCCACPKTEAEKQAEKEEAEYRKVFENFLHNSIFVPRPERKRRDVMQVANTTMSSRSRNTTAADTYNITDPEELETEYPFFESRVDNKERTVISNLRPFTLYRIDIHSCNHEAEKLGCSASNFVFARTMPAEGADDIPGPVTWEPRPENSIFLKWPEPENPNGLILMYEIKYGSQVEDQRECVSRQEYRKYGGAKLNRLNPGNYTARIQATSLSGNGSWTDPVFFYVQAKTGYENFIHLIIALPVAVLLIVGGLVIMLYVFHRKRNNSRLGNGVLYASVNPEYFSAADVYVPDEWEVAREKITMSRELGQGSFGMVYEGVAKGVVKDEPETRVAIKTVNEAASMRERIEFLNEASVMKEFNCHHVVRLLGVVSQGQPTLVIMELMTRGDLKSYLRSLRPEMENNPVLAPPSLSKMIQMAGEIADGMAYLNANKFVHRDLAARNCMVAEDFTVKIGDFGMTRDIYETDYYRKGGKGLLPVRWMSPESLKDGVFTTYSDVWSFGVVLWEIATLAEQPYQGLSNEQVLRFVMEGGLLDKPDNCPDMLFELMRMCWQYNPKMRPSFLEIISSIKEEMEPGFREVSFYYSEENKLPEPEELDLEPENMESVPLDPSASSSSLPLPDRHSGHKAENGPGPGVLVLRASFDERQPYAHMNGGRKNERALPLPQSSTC
T2 sequence (P09769 whole entry): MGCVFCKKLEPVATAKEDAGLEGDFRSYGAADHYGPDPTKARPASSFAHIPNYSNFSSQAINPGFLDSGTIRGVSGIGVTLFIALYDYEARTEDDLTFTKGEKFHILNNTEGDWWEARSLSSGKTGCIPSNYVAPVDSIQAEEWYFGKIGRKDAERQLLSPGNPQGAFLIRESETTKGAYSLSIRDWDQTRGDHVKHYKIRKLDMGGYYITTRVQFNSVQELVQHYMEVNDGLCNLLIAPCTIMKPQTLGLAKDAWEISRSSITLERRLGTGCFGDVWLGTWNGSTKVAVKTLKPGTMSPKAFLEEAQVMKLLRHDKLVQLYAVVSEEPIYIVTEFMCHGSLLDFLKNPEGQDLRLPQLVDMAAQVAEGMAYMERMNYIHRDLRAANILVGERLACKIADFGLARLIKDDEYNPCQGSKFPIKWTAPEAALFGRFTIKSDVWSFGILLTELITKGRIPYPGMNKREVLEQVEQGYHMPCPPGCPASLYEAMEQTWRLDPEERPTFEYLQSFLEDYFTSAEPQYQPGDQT
T8 sequence (P27448 whole entry): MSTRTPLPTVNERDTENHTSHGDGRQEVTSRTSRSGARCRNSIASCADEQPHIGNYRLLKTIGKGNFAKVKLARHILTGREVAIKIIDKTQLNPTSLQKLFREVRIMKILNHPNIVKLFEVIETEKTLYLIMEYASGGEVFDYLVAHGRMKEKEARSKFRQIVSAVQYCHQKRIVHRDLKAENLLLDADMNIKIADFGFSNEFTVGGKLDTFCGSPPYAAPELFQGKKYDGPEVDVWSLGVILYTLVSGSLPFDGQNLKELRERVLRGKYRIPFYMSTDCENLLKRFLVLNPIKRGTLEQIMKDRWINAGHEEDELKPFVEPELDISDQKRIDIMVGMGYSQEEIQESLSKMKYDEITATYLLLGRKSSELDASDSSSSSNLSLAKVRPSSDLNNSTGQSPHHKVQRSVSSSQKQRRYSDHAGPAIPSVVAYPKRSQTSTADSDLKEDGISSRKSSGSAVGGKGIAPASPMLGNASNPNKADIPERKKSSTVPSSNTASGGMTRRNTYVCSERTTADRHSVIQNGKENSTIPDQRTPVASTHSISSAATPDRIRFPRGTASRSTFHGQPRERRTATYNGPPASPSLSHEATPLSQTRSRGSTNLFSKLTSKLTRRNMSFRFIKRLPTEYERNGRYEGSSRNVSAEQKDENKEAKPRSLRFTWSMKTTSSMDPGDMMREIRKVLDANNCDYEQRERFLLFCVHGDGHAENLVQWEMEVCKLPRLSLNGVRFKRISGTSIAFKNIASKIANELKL
T5 sequence (P23458 whole entry): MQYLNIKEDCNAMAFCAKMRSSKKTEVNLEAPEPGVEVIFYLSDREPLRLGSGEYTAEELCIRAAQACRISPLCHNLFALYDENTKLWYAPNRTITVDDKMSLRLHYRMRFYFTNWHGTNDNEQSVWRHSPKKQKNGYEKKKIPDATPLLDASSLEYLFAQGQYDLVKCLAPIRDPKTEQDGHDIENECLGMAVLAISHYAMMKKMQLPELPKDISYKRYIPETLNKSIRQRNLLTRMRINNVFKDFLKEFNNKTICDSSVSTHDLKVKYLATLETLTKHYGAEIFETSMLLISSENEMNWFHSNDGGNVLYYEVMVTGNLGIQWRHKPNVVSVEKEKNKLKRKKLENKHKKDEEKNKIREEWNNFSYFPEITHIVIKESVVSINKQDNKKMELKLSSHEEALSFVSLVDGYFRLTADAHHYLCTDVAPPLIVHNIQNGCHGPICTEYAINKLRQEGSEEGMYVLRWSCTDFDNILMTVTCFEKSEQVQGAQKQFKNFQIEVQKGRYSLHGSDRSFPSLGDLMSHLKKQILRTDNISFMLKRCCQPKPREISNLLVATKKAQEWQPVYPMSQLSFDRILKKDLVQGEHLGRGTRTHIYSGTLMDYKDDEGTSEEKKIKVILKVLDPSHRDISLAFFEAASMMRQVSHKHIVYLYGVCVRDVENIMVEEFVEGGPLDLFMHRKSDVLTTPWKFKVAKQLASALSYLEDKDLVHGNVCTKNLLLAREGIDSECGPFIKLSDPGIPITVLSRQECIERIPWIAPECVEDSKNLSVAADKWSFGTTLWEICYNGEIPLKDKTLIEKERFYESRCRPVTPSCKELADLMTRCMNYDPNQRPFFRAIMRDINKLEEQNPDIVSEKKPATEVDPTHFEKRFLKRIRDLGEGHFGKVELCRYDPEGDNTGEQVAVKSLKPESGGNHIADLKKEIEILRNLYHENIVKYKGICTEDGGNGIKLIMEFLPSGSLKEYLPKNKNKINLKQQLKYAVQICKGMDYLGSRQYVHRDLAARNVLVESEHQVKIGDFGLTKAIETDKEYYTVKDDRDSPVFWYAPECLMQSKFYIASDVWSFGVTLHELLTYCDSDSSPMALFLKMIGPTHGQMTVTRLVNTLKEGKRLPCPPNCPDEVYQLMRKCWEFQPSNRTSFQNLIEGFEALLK
T4 sequence (P06239 whole entry): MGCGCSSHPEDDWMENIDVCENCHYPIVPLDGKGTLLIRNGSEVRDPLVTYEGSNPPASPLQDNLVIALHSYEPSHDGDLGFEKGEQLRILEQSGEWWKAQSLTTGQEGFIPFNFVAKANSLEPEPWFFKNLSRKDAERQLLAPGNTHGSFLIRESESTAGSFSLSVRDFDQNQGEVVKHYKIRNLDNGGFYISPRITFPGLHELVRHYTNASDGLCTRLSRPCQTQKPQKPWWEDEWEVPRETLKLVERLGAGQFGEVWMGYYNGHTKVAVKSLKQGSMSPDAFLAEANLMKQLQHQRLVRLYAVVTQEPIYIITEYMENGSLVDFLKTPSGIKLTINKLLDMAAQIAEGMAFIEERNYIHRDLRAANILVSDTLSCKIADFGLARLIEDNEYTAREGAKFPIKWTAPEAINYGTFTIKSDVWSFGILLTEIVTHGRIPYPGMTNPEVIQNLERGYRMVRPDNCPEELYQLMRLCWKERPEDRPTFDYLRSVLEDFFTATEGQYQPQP

C[C@H]1CNC(=O)c2cnn3ccc(nc23)N[C@H](C)c2cc(F)ccc2O1 [Compound 1, (7S,13R)-11-fluoro-7,13-dimethyl-6,7,13,14-tetrahydro-1,15-ethenopyrazolo[4,3-f][1,4,8,10]benzoxatriazacyclotridecin-4(5H)-one]
Kd (ARK5 [1]): 3.7 nM
Kd (FAK): 27 nM
IC50 (FGR): 3.05 nM
IC50 (ARK5 [2]): 4.46 nM
IC50 (SNARK): 13 nM
IC50 (LCK): 18.6 nM
IC50 (JAK1): 19 nM
IC50 (TYK2): 21.6 nM
IC50 (IGFR): 111 nM
IC50 (MARK3): 512 nM
IC50 [3]: 13.4 nM
IC50 [4]: 5 nM
IC50 (paxillin): ~103 nM
apoptosis of Karpas-299 cells (caspase 3/7 glo, PARP western blotting) (Karpas-299 cells): increased the number of apoptotic Karpas-299 cells
mice exhibiting tumor regression ([5]; 15 mg/kg/BID orally): 2 of 8
mice exhibiting tumor regression ([5]; 50 mg/kg/BID orally): 8 of 8
tumor regression (REG) ([5]; 50 mg/kg/BID orally): 41%
mice exhibiting tumor regression ([6]; 15 mg/kg/BID orally): 2 of 8
mice exhibiting complete tumor regression ([6]; 75 mg/kg BID orally): 8 of 8
tumor regression (REG) ([6]; 75 mg/kg BID orally): 100%
